Results on 4 molecules are retold here after EP4583874B1, “MULTITARGET NUCLEAR RECEPTOR LIGANDS BASED ON 2-(4-(QUINOLIN-2-YLOXY)PHENOXY)PROPANOIC ACID AND 2-(4-(QUINOXALIN-2-YLOXY)PHENOXY)PROPANOIC ACID FOR THE TREATMENT OF METABOLIC AND LIVER DISEASES” (CHARLES UNIVERSITY, FACULTY OF PHARMACY IN HRADEC KRALOVE, priority 2022, dated 2024).

The target of data set [1] is T1, human PPARα (Homo sapiens, UniProt Q07869).
T1 construct: DNA constructs encoding human LBD domains of human PPARα, PPARγ, of LXRα (pGAL4-PPARα, pGAL4-PPARγ, pGAL4-LXRα); expressed in transfected cells; host or cells: HepG2
T1 sequence (Q07869 239-466 limits assumed): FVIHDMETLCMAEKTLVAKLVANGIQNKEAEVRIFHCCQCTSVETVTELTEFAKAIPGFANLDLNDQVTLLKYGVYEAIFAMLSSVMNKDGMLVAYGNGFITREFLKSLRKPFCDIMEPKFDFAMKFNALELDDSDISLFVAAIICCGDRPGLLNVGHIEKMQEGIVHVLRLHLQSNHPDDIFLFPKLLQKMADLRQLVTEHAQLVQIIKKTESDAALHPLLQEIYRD
Briefly: PPARα responsive luciferase reporter gene assay (pGAL4-PPARα / pGL5-UAS 9x) in HepG2 cells. In kind it is cell-based. Particulars: relative activation to fenofibrate 10 µM (100%), HepG2, 24 h, negative value indicates inverse agonism. The source says:
Bezafibrate, GW7647 and WY14643 are known PPARα ligands. […] GW3965 is known high-affinity LXRα ligand. […]
(§1) In HepG2 cells, luciferase gene reporter assays have been performed with the transiently transfected reporter gene luciferase construct with the UAS yeast binding site interacting with GAL4 protein (pGL5-UAS 9x, Promega). DNA constructs encoding human LBD domains of human PPARα, PPARγ, of LXRα (pGAL4-PPARα, pGAL4-PPARγ, pGAL4-LXRα) have been cotransfected with the reporter construct. For FXR, FXRE-luc construct with FXR response elements upstream of Firefly luciferase has been used together with an expression construct for human FXR for HepG2 cells transfection. HepG2 cells were then treated with compounds of the invention for 24 h.

For data set [2], the system named is C57BL/6J mice. The experiment in a line: Pilot study in mice, liver mRNA expression by RT-qPCR. In kind it is in vivo. Particulars: 3x 30 mg/kg p.o. gavage, liver 24 h after last application, vs vehicle. As for the experimental part: Compounds 35 and 37 have been applied three times after 24 h (3x 30 mg/kg) via p.o. gavage to wild-type C57BL/6J mice. After 24 h from the last application, mice were sacrificed, and live samples collected on dry ice for total RNA isolation. RT-qPCR experiments have been performed with TaqMan probes and expression has been quantified using a reference gene (beta-actin and Gapdh) and delta-delta method. Data represents fold up or downregulation in mRNA expression for tested genes related to the expression in vehicle-treated control animals. * - statistically significant (p<0.05) up- or down- regulation in animals treated with tested compounds (n=4).
In the pilot study, compounds of the invention 37 and 35 were applied by per os probe (gavage) to male mice of age 15 weeks (n=4 per group) three times (3 x 30 mg/kg b.w.) in 1%PEG300/methylcellulose solution (compounds of EXAMPLE 37or 35). Livers were sampled 24 hours after application into liquid nitrogen for total RNA insolation and for qRT-PCR analysis (Quantstudio 7 HT Fast Real-Time PCR System).
(§2) Expressions of NR target genes mRNAs in livers of mice or in 3D cultured (spheroids) primary human hepatocytes have been performed using TaqMan probes-based RT-qPCR after isolation of total RNA by Trizol® (ThermoFischer Scientific) reagent and reverse transcription synthesis of cDNA in Quant Studio cycler. Real-time qPCR TaqMan probes have been purchased prom ThermoFisher scientific (Cat. No. 4351372 and 433118). Delta-delta method and Gapdh or TATA-box binding protein (TBP) housekeeping genes were used for relative quantification. Data are expressed as fold up-/down-regulation compared to vehicle-treated samples/mice.
(In general: In qPCR the cycle at which signal appears reflects the starting amount.)

Data set [3] concerns 3D primary human hepatocyte spheroids. Briefly: Gene expression in 3D primary human hepatocyte spheroids by RT-qPCR. In kind it is cell-based. Particulars: 3D spheroids of primary human hepatocytes (JEL donor), 72 hours.
Excerpt: After the interval, spheroid have been subjected to RNA isolation and RT-qPCR was used to analyse mRNA expression using specific TaqMan probes. Expression has been quantified using a reference gene (TBP) and delta-delta method. Data represents fold up or downregulation in mRNA expression for tested genes (column) related to the expression in vehicle-treated controls (equal to 1, white color).
Human hepatocellular carcinoma HepG2 cell line was purchased from the European Collection of Cell Cultures (ECACC, Salisbury, UK). Primary human hepatocytes (donor) have been purchased from BioIV, Royston, UK.
as §2

Data set [4] has as its target T2, human PPARγ (Homo sapiens, UniProt P37231).
T2 construct: DNA constructs encoding human LBD domains of human PPARα, PPARγ, of LXRα (pGAL4-PPARα, pGAL4-PPARγ, pGAL4-LXRα); expressed in transfected cells; host or cells: HepG2
T2 sequence (P37231 238-503 limits assumed): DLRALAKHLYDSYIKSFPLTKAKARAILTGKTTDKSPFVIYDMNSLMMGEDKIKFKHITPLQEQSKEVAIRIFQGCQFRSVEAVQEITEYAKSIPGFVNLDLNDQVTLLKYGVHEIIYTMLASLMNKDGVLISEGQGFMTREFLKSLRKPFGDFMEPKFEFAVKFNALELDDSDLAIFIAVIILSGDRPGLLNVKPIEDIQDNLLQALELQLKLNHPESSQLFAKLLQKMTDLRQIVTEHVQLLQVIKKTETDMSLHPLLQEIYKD
The experiment in a line: PPARγ luciferase reporter gene assay (pGAL4-PPARγ / pGL5-UAS 9x) in HepG2 cells. As to conditions: HepG2, 24 h. In kind it is cell-based. For orientation: In a reporter assay the amount or activity of a reporter protein is the signal.

Data set [5] concerns the target T3, human LXRα (Homo sapiens, UniProt Q13133).
T3 construct: DNA constructs encoding human LBD domains of human PPARα, PPARγ, of LXRα (pGAL4-PPARα, pGAL4-PPARγ, pGAL4-LXRα); expressed in transfected cells; host or cells: HepG2
T3 sequence (Q13133 209-447 limits assumed): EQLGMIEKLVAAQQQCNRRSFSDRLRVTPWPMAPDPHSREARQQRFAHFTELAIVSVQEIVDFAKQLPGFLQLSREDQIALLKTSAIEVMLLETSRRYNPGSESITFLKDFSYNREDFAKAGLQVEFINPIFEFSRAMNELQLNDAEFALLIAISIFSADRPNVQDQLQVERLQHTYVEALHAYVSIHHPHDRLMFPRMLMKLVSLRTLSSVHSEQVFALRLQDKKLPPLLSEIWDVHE
The experiment in a line: LXRα luciferase reporter gene assay, inhibition of activation by GW3965 (pGAL4-LXRα / pGL5-UAS 9x) in HepG2 cells. In kind it is cell-based. Particulars: HepG2, 24 h; read-out: LXRα antagonism. As to the method: Bezafibrate, GW7647 and WY14643 are known PPARα ligands. […] GW3965 is known high-affinity LXRα ligand.
Inverse agonistic/antagonistic activities of tested compounds to LXRα receptor activated by the LXRα agonist GW3965(10 µM). […] Negative value indicates inverse agonism.
as §1

For data set [6], the target named is T4, human FXR (Homo sapiens, UniProt Q96RI1).
T4 construct: expressed in transfected cells; host or cells: HepG2
T4 sequence (Q96RI1 1-486): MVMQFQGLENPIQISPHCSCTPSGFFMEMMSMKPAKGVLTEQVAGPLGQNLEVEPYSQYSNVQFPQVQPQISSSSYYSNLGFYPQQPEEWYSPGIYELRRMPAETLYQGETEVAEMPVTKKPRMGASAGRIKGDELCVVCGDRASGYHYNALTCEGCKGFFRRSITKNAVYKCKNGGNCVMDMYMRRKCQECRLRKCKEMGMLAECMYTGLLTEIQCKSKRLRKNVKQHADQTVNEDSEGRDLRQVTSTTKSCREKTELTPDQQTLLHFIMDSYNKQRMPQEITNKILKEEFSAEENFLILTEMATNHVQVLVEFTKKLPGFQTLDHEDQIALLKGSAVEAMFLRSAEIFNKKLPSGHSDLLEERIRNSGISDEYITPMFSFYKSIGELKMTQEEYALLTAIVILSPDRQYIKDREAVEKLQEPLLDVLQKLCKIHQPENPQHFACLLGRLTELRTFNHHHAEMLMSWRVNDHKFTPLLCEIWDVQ
The experiment in a line: FXR responsive luciferase reporter gene assay (FXRE-luc + human FXR expression construct) in HepG2 cells. In kind it is cell-based. As to conditions: HepG2, 24 h.
Excerpt: as §1

The target in data set [7] is T5, TGR5 (Homo sapiens, UniProt Q8TDU6).
T5 sequence (Q8TDU6 1-330): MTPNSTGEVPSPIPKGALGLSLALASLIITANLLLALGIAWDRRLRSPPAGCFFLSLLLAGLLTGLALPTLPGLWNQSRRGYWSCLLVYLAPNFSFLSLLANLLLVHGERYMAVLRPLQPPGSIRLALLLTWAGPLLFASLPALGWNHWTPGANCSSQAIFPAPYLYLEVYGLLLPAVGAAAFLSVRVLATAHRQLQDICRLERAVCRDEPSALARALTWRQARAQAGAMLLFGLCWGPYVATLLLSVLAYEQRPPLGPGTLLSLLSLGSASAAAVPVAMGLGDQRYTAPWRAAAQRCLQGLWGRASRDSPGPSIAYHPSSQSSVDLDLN
Briefly: TGR5 luciferase reporter assay. In kind it is cell-based. Particulars: relative activation to LCA 10 µM (100%), negative value indicates inverse agonism.

The term Emax denotes the greatest response seen or fitted, relative to the assay's reference.

The molecule `C[C@@H](Oc1ccc(Oc2ccc3ccc(Cl)cc3n2)cc1)C(=O)O` [compound 35, (R)-2-(4-((7-Chloroquinolin-2-yl)oxy)phenoxy)propanoic acid] registered an Emax at 10 µM in data set [1] of 117%. Further, in data set [2], the “Cyp7a1 expression in the mouse liver” value is reported as “down-regulates”, the “Fasn gene expression in the mouse liver” value is on record as “down-regulate”, the “Pck1 gene expression in the mouse liver” value was “down-regulate” and the “cholesterol efflux transporters Abcg5/8 expression in the mouse liver” value is “down-regulates”. In addition, in data set [2], the “key protein involved in fatty acid (beta) oxidation, mRNA expression in the mouse liver” value is “up-regulate”. Besides, in data set [3], the “effect on some critical genes involved in fatty acid oxidation in comparison with fenofibrate” value was “augmented effect”. In addition, the “genes involved in fatty acid catabolism” value in data set [3] (combined effect of obeticholic acid and TFCA) is recorded as “suitable upregulation”. This molecule also gave an Emax at 10 µM in data set [4] of 4%. The inhibition at 10 µM in data set [5] came out at 63%. In data set [6], the Emax at 10 µM stood at 4%. The same molecule registered an Emax at 10 µM in data set [7] of 5%.

As to `C[C@@H](Oc1ccc(Oc2ccc3ccc(Br)cc3n2)cc1)C(=O)O` [compound 39, (R)-2-(4-((7-Bromoquinolin-2-yl)oxy)phenoxy)propanoic acid], the Emax at 10 µM is 87% in data set [1], 3% in data set [4], 4% in data set [6] and 6% in data set [7]. Further, the inhibition at 10 µM in data set [5] came out at 43%.

With `C[C@@H](Oc1ccc(Oc2ccc3c(Br)cccc3n2)cc1)C(=O)O` [compound 40, (R)-2-(4-((5-Bromoquinolin-2-yl)oxy)phenoxy)propanoic acid], the Emax at 10 µM in data set [1] came out at 0%; in data set [4] it was 1%; in data set [6] it was 89%; in data set [7], 16%. The inhibition at 10 µM in data set [5] was found to be 48%.

Consider `C[C@@H](Oc1ccc(Oc2ccc3c(Cl)cc(Cl)cc3n2)cc1)C(=O)O` [compound 38, (R)-2-(4-((5,7-Dichloroquinolin-2-yl)oxy)phenoxy)propanoic acid], for which the Emax at 10 µM in data set [1] came to 0%; in data set [4], 1%; in data set [6], 14%; in data set [7], 2%. In addition, the inhibition at 10 µM in data set [5] came to 41%.
